Tested on: LG0703-F498-PDC complex spheroid growth
Assay: Anticancer human tumor LG0703-F498-PDC patient-derived lung adenocarcinoma cell line growth inhibition [AhR]
Details: for IC50: curve of first compound; for viability, T/C: stronger effect = lower value
Procedure, shortened: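 Spheroids combined tumor cells with HUVEC endothelial cells and human MSCs as stroma. AhR antagonists were paired with standard or investigational drugs, each dosed in half-log steps down from near clinical Cmax, or from 10 microM where Cmax was unknown.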

[1] = second compound 0.1 µM, first compound 0.0316 µM
[2] = second compound 0.1 µM, first compound 0.1 µM
[3] = second compound 0.1 µM, first compound 0.316 µM
[4] = second compound 0.1 µM, first compound 1 µM
[5] = second compound 0.1 µM, first compound 3.16 µM
[6] = second compound 0.1 µM, first compound 10 µM
[7] = second compound 0.316 µM, first compound 0.0316 µM
[8] = second compound 0.316 µM, first compound 0.1 µM
[9] = second compound 0.316 µM, first compound 0.316 µM
[10] = second compound 0.316 µM, first compound 1 µM
[11] = second compound 0.316 µM, first compound 3.16 µM
[12] = second compound 0.316 µM, first compound 10 µM
[13] = second compound 1 µM, first compound 0.0316 µM
[14] = second compound 1 µM, first compound 0.1 µM
[15] = second compound 1 µM, first compound 0.316 µM
[16] = second compound 1 µM, first compound 1 µM
[17] = second compound 1 µM, first compound 3.16 µM
[18] = second compound 1 µM, first compound 10 µM
[19] = second compound 3.16 µM, first compound 0.0316 µM
[20] = second compound 3.16 µM, first compound 0.1 µM
[21] = second compound 3.16 µM, first compound 0.316 µM
[22] = second compound 3.16 µM, first compound 1 µM
[23] = second compound 3.16 µM, first compound 3.16 µM
[24] = second compound 3.16 µM, first compound 10 µM
[25] = second compound 10 µM, first compound 0.0316 µM
[26] = second compound 10 µM, first compound 0.1 µM
[27] = second compound 10 µM, first compound 0.316 µM
[28] = second compound 10 µM, first compound 1 µM
[29] = second compound 10 µM, first compound 3.16 µM
[30] = second compound 10 µM, first compound 10 µM
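Further: luminescence taken as a proxy for viable cell amount.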
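Wherever viability, T/C is given: percent of DMSO vehicle control where 100% means growth equal to vehicle.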

CC(C)c1c(-c2ccccc2)nc2c(C#N)c[nH]n2c1=O + Cc1ccccc1N=Nc1ccc(NC(=O)c2ccnn2C)c(C)c1
IC50 (second compound 0.1 µM): > 10 µM
IC50 (second compound 0.316 µM): > 10 µM
IC50 (second compound 1 µM): > 10 µM
IC50 (second compound 3.16 µM): > 10 µM
IC50 (second compound 10 µM): > 10 µM
viability, T/C [1]: 95.3%
viability, T/C [2]: 88.1%
viability, T/C [3]: 94.9%
viability, T/C [4]: 98.5%
viability, T/C [5]: 112%
viability, T/C [6]: 102%
viability, T/C [7]: 97.4%
viability, T/C [8]: 85.6%
viability, T/C [9]: 85.5%
viability, T/C [10]: 78.8%
viability, T/C [11]: 95.9%
viability, T/C [12]: 92.1%
viability, T/C [13]: 88.1%
viability, T/C [14]: 90.4%
viability, T/C [15]: 94.7%
viability, T/C [16]: 89.5%
viability, T/C [17]: 87.6%
viability, T/C [18]: 84.1%
viability, T/C [19]: 78%
viability, T/C [20]: 79%
viability, T/C [21]: 84.5%
viability, T/C [22]: 77.6%
viability, T/C [23]: 81.5%
viability, T/C [24]: 86.8%
viability, T/C [25]: 86.3%
viability, T/C [26]: 75.6%
viability, T/C [27]: 67.9%
viability, T/C [28]: 82.8%
viability, T/C [29]: 81.7%
viability, T/C [30]: 79.3%

CC1COCCN1c1cc(-c2ccnn2C)c2ccnc(-c3ccn[nH]3)c2n1 (stereo not given) + Cc1ccccc1N=Nc1ccc(NC(=O)c2ccnn2C)c(C)c1
IC50 (second compound 0.1 µM): 0.514 µM
IC50 (second compound 0.316 µM): 0.678 µM
IC50 (second compound 1 µM): 0.306 µM
IC50 (second compound 3.16 µM): 0.406 µM
IC50 (second compound 10 µM): 0.592 µM
viability, T/C (second compound 0.1 µM, first compound 0.00316 µM): 88.3%
viability, T/C (second compound 0.1 µM, first compound 0.01 µM): 88.5%
viability, T/C [1]: 82.4%
viability, T/C [2]: 72%
viability, T/C [3]: 56.3%
viability, T/C [4]: 41.5%
viability, T/C (second compound 0.316 µM, first compound 0.00316 µM): 98%
viability, T/C (second compound 0.316 µM, first compound 0.01 µM): 110%
viability, T/C [7]: 90.6%
viability, T/C [8]: 73.1%
viability, T/C [9]: 58.4%
viability, T/C [10]: 45.6%
viability, T/C (second compound 1 µM, first compound 0.00316 µM): 94.4%
viability, T/C (second compound 1 µM, first compound 0.01 µM): 79.8%
viability, T/C [13]: 91.6%
viability, T/C [14]: 73.6%
viability, T/C [15]: 50%
viability, T/C [16]: 38.4%
viability, T/C (second compound 3.16 µM, first compound 0.00316 µM): 92.8%
viability, T/C (second compound 3.16 µM, first compound 0.01 µM): 79.7%
viability, T/C [19]: 69.7%
viability, T/C [20]: 78%
viability, T/C [21]: 49.3%
viability, T/C [22]: 37%
viability, T/C (second compound 10 µM, first compound 0.00316 µM): 86.6%
viability, T/C (second compound 10 µM, first compound 0.01 µM): 81.7%
viability, T/C [25]: 97.2%
viability, T/C [26]: 72.9%
viability, T/C [27]: 59.8%
viability, T/C [28]: 42.8%

COc1ccc([C@@H](O)c2cc(-c3ncnc4cc(N5CCOCC5)ccc34)c(F)cc2Cl)nn1 + Cc1ccccc1N=Nc1ccc(NC(=O)c2ccnn2C)c(C)c1
IC50 (second compound 0.1 µM): 4.59 µM
IC50 (second compound 0.316 µM): 2.87 µM
IC50 (second compound 1 µM): 3.92 µM
IC50 (second compound 3.16 µM): 2.55 µM
IC50 (second compound 10 µM): 1.9 µM
viability, T/C [1]: 93.9%
viability, T/C [2]: 93.8%
viability, T/C [3]: 88.3%
viability, T/C [4]: 75.7%
viability, T/C [5]: 61.2%
viability, T/C [6]: 29%
viability, T/C [7]: 83.3%
viability, T/C [8]: 101%
viability, T/C [9]: 91.1%
viability, T/C [10]: 75%
viability, T/C [11]: 48.5%
viability, T/C [12]: 28.1%
viability, T/C [13]: 87.3%
viability, T/C [14]: 99.2%
viability, T/C [15]: 86%
viability, T/C [16]: 79%
viability, T/C [17]: 55%
viability, T/C [18]: 28.5%
viability, T/C [19]: 89.8%
viability, T/C [20]: 83.9%
viability, T/C [21]: 78%
viability, T/C [22]: 68.1%
viability, T/C [23]: 45.2%
viability, T/C [24]: 23.8%
viability, T/C [25]: 75.5%
viability, T/C [26]: 93.6%
viability, T/C [27]: 80.8%
viability, T/C [28]: 57.9%
viability, T/C [29]: 42.5%
viability, T/C [30]: 15.6%

O=C(C=Cn1cnc(-c2cc(C(F)(F)F)cc(C(F)(F)F)c2)n1)NNc1cnccn1 + Cc1ccccc1N=Nc1ccc(NC(=O)c2ccnn2C)c(C)c1
IC50 (second compound 0.1 µM): 0.0768 µM
IC50 (second compound 0.316 µM): 0.0708 µM
IC50 (second compound 1 µM): 0.132 µM
IC50 (second compound 3.16 µM): 0.0857 µM
IC50 (second compound 10 µM): 0.119 µM
viability, T/C (second compound 0.1 µM, first compound 0.00949 µM): 76.4%
viability, T/C (second compound 0.1 µM, first compound 0.03 µM): 73%
viability, T/C (second compound 0.1 µM, first compound 0.0949 µM): 44.9%
viability, T/C (second compound 0.1 µM, first compound 0.3 µM): 37.3%
viability, T/C (second compound 0.1 µM, first compound 0.949 µM): 43.8%
viability, T/C (second compound 0.1 µM, first compound 3 µM): 39.3%
viability, T/C (second compound 0.316 µM, first compound 0.00949 µM): 85.4%
viability, T/C (second compound 0.316 µM, first compound 0.03 µM): 64.2%
viability, T/C (second compound 0.316 µM, first compound 0.0949 µM): 45.5%
viability, T/C (second compound 0.316 µM, first compound 0.3 µM): 39.7%
viability, T/C (second compound 0.316 µM, first compound 0.949 µM): 46.6%
viability, T/C (second compound 0.316 µM, first compound 3 µM): 39.4%
viability, T/C (second compound 1 µM, first compound 0.00949 µM): 83%
viability, T/C (second compound 1 µM, first compound 0.03 µM): 72%
viability, T/C (second compound 1 µM, first compound 0.0949 µM): 54%
viability, T/C (second compound 1 µM, first compound 0.3 µM): 39.8%
viability, T/C (second compound 1 µM, first compound 0.949 µM): 40%
viability, T/C (second compound 1 µM, first compound 3 µM): 34.8%
viability, T/C (second compound 3.16 µM, first compound 0.00949 µM): 71.1%
viability, T/C (second compound 3.16 µM, first compound 0.03 µM): 63.6%
viability, T/C (second compound 3.16 µM, first compound 0.0949 µM): 47%
viability, T/C (second compound 3.16 µM, first compound 0.3 µM): 44.6%
viability, T/C (second compound 3.16 µM, first compound 0.949 µM): 35.3%
viability, T/C (second compound 3.16 µM, first compound 3 µM): 39.9%
viability, T/C (second compound 10 µM, first compound 0.00949 µM): 70%
viability, T/C (second compound 10 µM, first compound 0.03 µM): 61.3%
viability, T/C (second compound 10 µM, first compound 0.0949 µM): 50.6%
viability, T/C (second compound 10 µM, first compound 0.3 µM): 45.8%
viability, T/C (second compound 10 µM, first compound 0.949 µM): 39.2%
viability, T/C (second compound 10 µM, first compound 3 µM): 39.7%

Reference: PubChem BioAssay AID1919013 (Molecular Pharmacology Branch, DTP, NCI, 2023)
